Consider 17 molecules from patent publication US20250171432A1, “COMPOUNDS AND METHODS OF USE” (Tango Therapeutics, Inc., priority 2022, published 2025).

Read-outs that look alike come from different tables or passages of the source.

Holding throughout (type): cell-based
Assay [1] concerns SDMA (PRMT5 activity) in HAP1 MTAP-intact cell line. The assay is described as follows: SDMA in-cell western assay, HAP1 MTAP-intact.
Assay [2] relates to SDMA (PRMT5 activity) in HAP1 MTAP-deleted cell line. The assay is described as follows: SDMA in-cell western assay, HAP1 MTAP-deleted.
Assay [3] deals with HAP1 MTAP-deleted cell line. The experiment in a line: Viability assay (CellTiter-Glo), HAP1 MTAP-deleted. The conditions noted are these: Homo sapiens, 168 h, HAP1 MTAP-deleted cells, 7 days. A digest of the protocol:
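HAP1 MTAP-deleted and MTAP-intact cells seeded, then dosed next day (n=3, 0.2% DMSO) and grown 7 days. Viability by CellTiter-Glo luminescence, expressed as % of DMSO control per cell line.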

Where [4] appears, read: Homo sapiens, HAP1, 24 h, SDMA in-cell western, HAP1 MTAP-intact cells, 24 hours compound incubation.
Setting [5] is: Homo sapiens, SDMA in-cell western, HAP1 MTAP-deleted cells, 24 hours compound incubation.
[6] abbreviates: ratio of SDMA IC50 in HAP1 MTAP-intact to HAP1 MTAP-deleted cell line.
[7] abbreviates: Homo sapiens, SDMA in-cell western, HAP1 MTAP-intact cells, 24 hours compound incubation.

Consider `CCc1cc(NC(=O)C(=O)N2C[C@@H](C)CC[C@@H]2c2ccc3sc([C@@H]4C[C@H](C)N(C)C4)nc3c2)cnc1N` (racemic) [Compound 16, N-(6-amino-5-ethyl-3-pyridyl)-2-oxo-2-[(2R,5S)-5-methyl-2-[2-[rac-(3S,5R)-1,5-dimethylpyrrolidin-3-yl]-1,3-benzothiazol-5-yl]-1-piperidyl]acetamide], for which the IC50 in assay [1] (setting [4]) is more than 50 nM; in assay [2] (setting [5]), less than 5 nM; in assay [3] it was less than 100 nM. Also, the IC90 in assay [2] (setting [5]) was less than 75 nM. The “Hap1 MTAP intact/deleted ratio” value in assay [2] (setting [6]) is given as “A (“A” indicates an IC50 ratio greater than or equal to 30 fold)”.
The corresponding values for `COc1ncc(NC(=O)C(=O)N2C[C@@H](C)CC[C@@H]2c2ccc3sc([C@H]4C[C@@H]5CN(C)C[C@@H]5C4)nc3c2)cc1C(N)=O` (single isomer, unassigned) [Compound 67] are more than 50 nM, less than 5 nM, less than 100 nM, less than 75 nM and “A (“A” indicates an IC50 ratio greater than or equal to 30 fold)”.
The corresponding values for `COc1ncc(NC(=O)C(=O)N2C[C@@H](C)CC[C@@H]2c2ccc3sc([C@@H]4CCN(C)C[C@H]4OC)nc3c2)cc1C(N)=O` (single isomer, unassigned) [Compound 68] are more than 50 nM, less than 5 nM, less than 100 nM, less than 75 nM and “A (“A” indicates an IC50 ratio greater than or equal to 30 fold)”.
`CCc1cc(NC(=O)C(=O)N2C[C@H](C)CC[C@@H]2c2ccc3sc([C@H]4C[C@H](N(C)C)C4)nc3c2)cnc1N` [Compound 119, N-(6-amino-5-ethyl-3-pyridyl)-2-oxo-2-[(2R,5R)-2-[2-[3-(dimethylamino)cyclobutyl]-1,3-benzothiazol-5-yl]-5-methyl-1-piperidyl]acetamide]: the IC50 in assay [1] (setting [4]) is more than 50 nM; in assay [2] (setting [5]), more than 50 nM; in assay [3] it was more than 1000 nM. The IC90 in assay [2] (setting [5]) was more than 125 nM. Further, in assay [2] (setting [6]), the “Hap1 MTAP intact/deleted ratio” value is listed as “C (“C” indicates an IC50 ratio of less than 15 fold)”.
`CCc1cc(NC(=O)C(=O)N2C[C@@H](C)CC[C@@H]2c2ccc3sc(C4=C(C)CN(C)CC4)nc3c2)cnc1N` [Compound 84, N-(6-amino-5-ethylpyridin-3-yl)-2-((2R,5S)-2-(2-(1,5-dimethyl-1,2,3,6-tetrahydropyridin-4-yl)benzo[d]thiazol-5-yl)-5-methylpiperidin-1-yl)-2-oxoacetamide]: the 50% inhibitory concentration (IC50) was more than 50 nM in assay [1] (setting [7]), less than 5 nM in assay [2] (setting [5]) and less than 100 nM in assay [3]. Further, in assay [2] (setting [5]), the concentration for an effect of 90% (IC90) is less than 75 nM. For the same molecule, the “Hap1 MTAP intact/deleted ratio” value in assay [2] (setting [6]) is reported as “B (“B” indicates an IC50 ratio greater than or equal to 15 fold but lower than 30 fold)”.
With `C[C@H]1CC[C@H](c2ccc3sc(C4CCN(C)C(C)(C)C4)nc3c2)N(C(=O)C(=O)Nc2cnc(N)c(C3COC3)c2)C1` (single isomer, unassigned) [Compound 34], the IC50 in assay [1] (setting [4]) was 5 to 50 nM; in assay [2] (setting [5]), less than 5 nM; in assay [3], less than 100 nM. The IC90 in assay [2] (setting [5]) is less than 75 nM. Moreover, the “Hap1 MTAP intact/deleted ratio” value in assay [2] (setting [6]) is “C (“C” indicates an IC50 ratio of less than 15 fold)”.
Turning to `COc1ncc(NC(=O)C(=O)N2C[C@@H](C)CC[C@@H]2c2ccc3sc(C4(C)CCN(C)CC4)nc3c2)cc1C(N)=O` [Compound 122, 5-(2-((2R,5S)-2-(2-(1,4-dimethylpiperidin-4-yl)benzo[d]thiazol-5-yl)-5-methylpiperidin-1-yl)-2-oxoacetamido)-2-methoxynicotinamide], the IC50 is more than 50 nM in assay [1] (setting [7]), less than 5 nM in assay [2] (setting [5]) and less than 100 nM in assay [3]. The IC90 in assay [2] (setting [5]) was less than 75 nM. Also, the “Hap1 MTAP intact/deleted ratio” value in assay [2] (setting [6]) is recorded as “A (“A” indicates an IC50 ratio greater than or equal to 30 fold)”.
For the molecule `CCc1cc(NC(=O)C(=O)N2C[C@@H](C)CC[C@@H]2c2ccc3sc([C@H]4C[C@@H]5CN(C)C[C@@H]5C4)nc3c2)cnc1N` (single isomer, unassigned) [Compound 33], the 50% inhibitory concentration (IC50) in assay [1] (setting [4]) is more than 50 nM; in assay [2] (setting [5]) it was less than 5 nM; in assay [3] it was less than 100 nM. Also, the 90% effect concentration (IC90) in assay [2] (setting [5]) was less than 75 nM. Moreover, the “Hap1 MTAP intact/deleted ratio” value in assay [2] (setting [6]) is on record as “A (“A” indicates an IC50 ratio greater than or equal to 30 fold)”.
As for `CCc1cc(NC(=O)C(=O)N2C[C@@H](C)CC[C@@H]2c2ccc3sc([C@@H]4CCN(C)CC4(C)C)nc3c2)cnc1N` [Compound 79, N-(6-amino-5-ethylpyridin-3-yl)-2-((5S)-5-methyl-2-(2-(1,3,3-trimethylpiperidin-4-yl)benzo[d]thiazol-5-yl)piperidin-1-yl)-2-oxoacetamide], the values for the concentration for half-maximal inhibition (IC50) in assay [1] (setting [4]), in assay [2] (setting [5]) and in assay [3] were 5 to 50 nM, less than 5 nM and less than 100 nM, respectively. The molecule also returned a concentration for an effect of 90% (IC90) in assay [2] (setting [5]) of less than 75 nM. Also, the “Hap1 MTAP intact/deleted ratio” value in assay [2] (setting [6]) was “C (“C” indicates an IC50 ratio of less than 15 fold)”.
The corresponding values for `CCc1cc(NC(=O)C(=O)N2C[C@@H](C)CC[C@@H]2c2ccc3cn(C4CCN(C)C(C)(C)C4)nc3c2)cnc1N` (stereo partly drawn) [Compound 109, N-(6-amino-5-ethyl-3-pyridyl)-2-oxo-2-[(2R,5S)-5-methyl-2-[2-(1,2,2-trimethyl-4-piperidyl)indazol-6-yl]-1-piperidyl]acetamide] are 5 to 50 nM, less than 5 nM, less than 100 nM, less than 75 nM and “B (“B” indicates an IC50 ratio greater than or equal to 15 fold but lower than 30 fold)”.
With `CCc1cc(NC(=O)C(=O)N2C[C@@H](C)CC[C@@H]2c2ccc3sc([C@@H]4C[C@@H](C)N(C)C4)nc3c2)cnc1N` (mixture of isomers) [Compound 4, N-(6-amino-5-ethyl-3-pyridyl)-2-oxo-2-[(2R,5S)-5-methyl-2-[2-[rac-(3R,5R)-1,5-dimethylpyrrolidin-3-yl]-1,3-benzothiazol-5-yl]-1-piperidyl]acetamide], the half-inhibitory concentration (IC50) in assay [1] (setting [4]) is more than 50 nM; in assay [2] (setting [5]), less than 5 nM; in assay [3] it was less than 100 nM. The IC90 in assay [2] (setting [5]) is less than 75 nM. Further, the “Hap1 MTAP intact/deleted ratio” value in assay [2] (setting [6]) is on record as “A (“A” indicates an IC50 ratio greater than or equal to 30 fold)”.
The corresponding values for `COc1ncc(NC(=O)C(=O)N2C[C@@H](C)CC[C@@H]2c2ccc3sc([C@@H]4CN(C)CC4(C)C)nc3c2)cc1C(N)=O` (single isomer, unassigned) [Compound 74] are 5 to 50 nM, less than 5 nM, less than 100 nM, less than 75 nM and “B (“B” indicates an IC50 ratio greater than or equal to 15 fold but lower than 30 fold)”.
Turning to `CCc1cc(NC(=O)C(=O)N2C[C@@H](C)CC[C@@H]2c2ccc3sc(CC(C)N4CCCC4)nc3c2)cnc1N` (mixture of isomers) [Compound 116, N-(6-amino-5-ethylpyridin-3-yl)-2-((2R,5S)-5-methyl-2-(2-(2-(pyrrolidin-1-yl)propyl)benzo[d]thiazol-5-yl)piperidin-1-yl)-2-oxoacetamide], the IC50 in assay [1] (setting [4]) is more than 50 nM; in assay [2] (setting [5]) it was less than 5 nM; in assay [3] it was less than 100 nM. This molecule also returned a concentration for an effect of 90% (IC90) in assay [2] (setting [5]) of less than 75 nM. Further, the “Hap1 MTAP intact/deleted ratio” value in assay [2] (setting [6]) is “A (“A” indicates an IC50 ratio greater than or equal to 30 fold)”.
Turning to `COc1ncc(NC(=O)C(=O)N2C[C@@H](C)CC[C@@H]2c2ccc3cn([C@H]4CCN(C)C4)nc3c2)cc1C(N)=O` [Compound 103, 2-methoxy-5-(2-((2R,5S)-5-methyl-2-(2-((S)-1-methylpyrrolidin-3-yl)-2H-indazol-6-yl)piperidin-1-yl)-2-oxoacetamido)nicotinamide], the IC50 in assay [1] (setting [4]) is more than 50 nM; in assay [2] (setting [5]), less than 5 nM; in assay [3], less than 100 nM. The concentration for an effect of 90% (IC90) in assay [2] (setting [5]) was less than 75 nM. Further, the “Hap1 MTAP intact/deleted ratio” value in assay [2] (setting [6]) is on record as “A (“A” indicates an IC50 ratio greater than or equal to 30 fold)”.
`Cc1cc2cc(C(=O)N3C[C@@H](C)CC[C@@H]3c3ccc4sc(C5CCN(C)CC5)nc4c3)ccc2nc1N` [Compound 59, (2-amino-3-methylquinolin-6-yl)((2R,5S)-5-methyl-2-(2-(1-methylpiperidin-4-yl)benzo[d]thiazol-5-yl)piperidin-1-yl)methanone]: the IC50 in assay [1] was more than 50 nM. For the same molecule, in assay [2], the “Hap1 MTAP intact/deleted ratio” value was “A (key: “A” indicates an IC50 ratio greater than or equal to 30 fold; “B” indicates an IC50 ratio greater than or equal to 15 fold but lower than 30 fold; “C” indicates an IC50 ratio of less than 15 fold)”, the IC50 was less than 5 nM and the 90% effect concentration (IC90) was less than 75 nM. For the same molecule, the half-maximal inhibitory concentration (IC50) in assay [3] was less than 100 nM.
Turning to `COc1ncc(NC(=O)C(=O)N2C[C@@H](C)CC[C@@H]2c2ccc3sc(CC(C)(C)N(C)C)nc3c2)cc1C(N)=O` [Compound 120, 5-(2-((2R,5S)-2-(2-(2-(dimethylamino)-2-methylpropyl)benzo[d]thiazol-5-yl)-5-methylpiperidin-1-yl)-2-oxoacetamido)-2-methoxynicotinamide], the half-inhibitory concentration (IC50) in assay [1] (setting [4]) was more than 50 nM; in assay [2] (setting [5]) it was less than 5 nM; in assay [3] it was less than 100 nM. Moreover, the IC90 in assay [2] (setting [5]) is less than 75 nM. Further, in assay [2] (setting [6]), the “Hap1 MTAP intact/deleted ratio” value is on record as “A (“A” indicates an IC50 ratio greater than or equal to 30 fold)”.
The corresponding values for `CCc1cc(NC(=O)C(=O)N2C[C@@H](C)CC[C@@H]2c2ccc3cn([C@H]4CCOC4)nc3c2)cnc1N` (racemic) [Compound 93, N-(6-amino-5-ethyl-3-pyridyl)-2-oxo-2-[rac-(2R,5S)-5-methyl-2-(2-tetrahydrofuran-3-ylindazol-6-yl)-1-piperidyl]acetamide] are more than 50 nM, 5 to 50 nM, less than 100 nM, less than 75 nM and “A (“A” indicates an IC50 ratio greater than or equal to 30 fold)”.
